Entries after “also recorded” stand apart in the source; their conditions may differ.
Legend:
LNCaP cells = assay: Multiparameter single cell immunofluorescence assay for AR signaling (PSA/PSMA) in LNCaP cells; format: cell-based, human; settings: androgen-starved LNCaP cells (3 days 10% charcoal-stripped serum) treated with 1 nM R1881
Source text: To achieve multiparameter single cell analysis of AR activity, an automated fluorescence microscopy scanning platform was adapted to distinctly and specifically measure four fluorescent emission spectra simultaneously. Secondary fluorophores and optical band pass filters were selected to avoid “cross-talk” between the multiple fluorescent signals that are closely located on the electromagnetic spectrum, while maximizing signal intensity. The disclosed assay for quantitative measurement of signal intensity profiles for cells stained with antibodies against PSA and PSMA was developed using a model cell system (LNCaP). […]
(§1) Immunofluorescence Staining and Automated Fluorescence Microscopy To establish and validate the immunofluorescence single cell AR signature, LNCaP cells were cultured in media containing 10% charcoal-stripped serum for 3 days followed by treatment with 1 nM R1881 or 10 μM bicalutamide for 24 hours. […] An automated upright fluorescence microscopy scanning system (BioView) fitted with a precision motorized stage and xenon arc lamp (Lumen 2000, Prior Scientific) was used to comprehensively image each CTC-chip under 10× magnification in seven z-planes. Due to inherent auto fluorescence of biological samples that can interfere with the specificity of stains in the green spectra, the negative control marker, CD45, was paired with the Alexa Fluor 488 secondary antibody. […]

[1] = tested on: CTCs from patients with CRPC; assay: AR signaling phenotypes in CTCs from CRPC patients before and after second line hormonal therapy (HBCTC-Chip); format: in vivo, human; settings: for Effect of second line hormonal treatment on CTC numbers and AR phenotypes: CRPC patients, ketoconazole N=1, bicalutamide N=2, abiraterone acetate N=13
Protocol: (§2) Patients and Clinical Specimens Patients with metastatic prostate cancer receiving treatment at the Massachusetts General Hospital (MGH) were recruited according to an institutional review board (IRB) approved protocol. A total of 21 prostate cancer patients donated 10-20 mL of blood on one or more occasions for CTC analysis. A total of 21 male patients with no known diagnosis of cancer were recruited during routine visits to the MGH outpatient internal medicine clinic according to a separate IRB approved protocol. CTC capture using the ^HBCTC-Chip was performed as described (Stott S L, et al. Proc Natl Acad Sci USA 2010; 107: 18392-7), with anti-EpCAM mediated capture of cells, followed by combined staining with anti-PSA, anti-PSMA, and anti-CD45 antibodies (described in detail below).
(§3) HBCTC-Chip Blood Processing All specimens were collected into Vacutainer (Becton-Dickson) tubes containing the anticoagulant EDTA and were processed through the ^HBCTC-Chip within 6 hours of blood draw. Samples were run on the previously described microfluidic processing machine (Stott S L, et al. Proc Natl Acad Sci USA 2010; 107: 18392-7). Briefly, a 5 mL aliquot of blood was placed in an airtight conical tube on a rocker assembly, and 2-4 mL of blood were pneumatically driven through the chip at a flow rate of 1-1.5 mL/hour. Following processing, the ^HBCTC-Chip was flushed with 2.5 mL of PBS at 2.5 mL/hour to remove nonspecifically bound cells. Isolated CTCs were then subjected to immunofluorescence staining, as described below.
Immunofluorescence Staining and Automated Fluorescence Microscopy To establish and validate the immunofluorescence single cell AR signature, LNCaP cells were cultured in media containing 10% charcoal-stripped serum for 3 days followed by treatment with 1 nM R1881 or 10 μM bicalutamide for 24 hours. Once the assays were validated in cultured cells, they were applied to cells spiked into whole blood and isolated on the CTC-Chip, to healthy donor blood samples to establish the signal intensity threshold for detection, and ultimately on primary patient samples processed through the Chip. Cells captured on the ^HBCTC-chip were fixed with 4% formaldehyde and permeabilized with 1% NP-40 in PBS. Immunofluorescence staining was performed using a rabbit polyclonal anti-PSA antibody (DAKO), a mouse monoclonal IgG1 anti-PSMA antibody (J591; N. Bander), and a mouse monoclonal IgG2a anti-CD45 antibody (Abcam), followed by appropriately matched secondary antibodies conjugated with DyLight 649 (Jackson ImmunoResearch), Alexa Fluor 555 (Invitrogen), and Alexa Fluor 488 (Invitrogen). Nuclei were stained with DAPI. An automated upright fluorescence microscopy scanning system (BioView) fitted with a precision motorized stage and xenon arc lamp (Lumen 2000, Prior Scientific) was used to comprehensively image each CTC-chip under 10× magnification in seven z-planes. Due to inherent auto fluorescence of biological samples that can interfere with the specificity of stains in the green spectra, the negative control marker, CD45, was paired with the Alexa Fluor 488 secondary antibody. This choice reduced the sensitivity of the staining assay (potentially more false negatives), but lessened the risk of false positives through natural autofluorescence. Conversely, PSA, the highest affinity antibody tested (and subsequently strongest fluorescent signal) was placed in the Cy5 channel, where the quantum efficiency of traditional monochrome CCD sensors is reduced. To successfully achieve distinct, non-overlapping fluorescent signals in four colors while maximizing the fluorescent intensity output, modified Magnetron sputter-coated filter sets were selected for the Cy3 and Cy5 spectra (Chroma). Additional filter sets for the DAPI and FITC channel were used and exposure times were optimized. All samples were subsequently imaged at predetermined exposure times. […]

metastatic CRPC = settings: men with metastatic CRPC who have previously received chemotherapy; cited from earlier work
[2] = tested on: CTCs from patients with castration-sensitive prostate cancer; assay: AR signaling phenotypes in CTCs from patients with castration-sensitive metastatic prostate cancer before and after ADT (HBCTC-Chip); format: in vivo, human; settings: for Change of CTC AR signaling phenotype after ADT: treatment-naive castration-sensitive metastatic prostate cancer patients with detectable CTCs
Protocol: as §2
as §3, with “Following processing, the ^HBCTC-Chip was flushed with 2.5 mL of PBS at 2.5 mL/hour to remove nonspecifically bound cells. Isolated CTCs were then subjected to immunofluorescence staining, as described below.” left out
as §1

C[C@]1(O)CC[C@H]2[C@@H]3CCC4=CC(=O)CCC4=C3C=C[C@@]21C [R1881]
AR signaling phenotype (PSA/PSMA signal intensity profile) over time (LNCaP cells): time-dependent progression from an initial “AR-off” (PSA−/PSMA+) to an intermediate “AR-mixed” (PSA+/PSMA+) phenotype, and finally to an “AR-on” (PSA+/PSMA−) pattern

CC(=O)O[C@H]1CC[C@@]2(C)C(=CC[C@@H]3[C@@H]2CC[C@]2(C)C(c4cccnc4)=CC[C@@H]32)C1 [abiraterone acetate]
CRPC patients with a stable percentage of AR-on CTCs after therapy ([1]; 6 of 13 patients): 46%
Effect of second line hormonal treatment on CTC numbers and AR phenotypes [1]: varying effects on CTC numbers and AR phenotypes
Change in proportion of PSA+/PSMA− AR-on CTCs in an individual CRPC patient ([1]; single patients, after initiation of therapy (FIG. 4A, FIG. 4C)): a decrease in the proportion of PSA+/PSMA− “AR-on” CTCs; also recorded: Increase in the proportion of PSA+/PSMA− “AR-on” CTCs
CRPC patients with ≥50% decline in the percentage of AR-on (PSA+/PSMA−) CTCs ([1]; within 2-5 weeks of therapy, 4 of 13 patients): 31%
CRPC patients with ≥50% increase in the percentage of AR-on CTCs ([1]; within the first 2-5 weeks of therapy, 3 of 13 patients): 23%
Overall survival (metastatic CRPC): increases overall survival

CC(=O)N1CCN(c2ccc(OCC3COC(Cn4ccnc4)(c4ccc(Cl)cc4Cl)O3)cc2)CC1 (centres unmarked) [ketoconazole]
Effect of second line hormonal treatment on CTC numbers and AR phenotypes [1]: varying effects on CTC numbers and AR phenotypes

CCNC(=O)[C@@H]1CCCN1C(=O)[C@H](CCCNC(=N)N)NC(=O)[C@H](CC(C)C)NC(=O)[C@@H](CC(C)C)NC(=O)[C@H](Cc1ccc(O)cc1)NC(=O)[C@H](CO)NC(=O)[C@H](Cc1c[nH]c2ccccc12)NC(=O)[C@H](Cc1c[nH]cn1)NC(=O)[C@@H]1CCC(=O)N1 [leuprolide]
Change of CTC AR signaling phenotype after ADT [2]: transformation of CTCs from the “AR-on” (PSA+/PSMA−) phenotype to the “AR-off” (PSA−/PSMA+) phenotype
Change of CTC AR signaling phenotype after ADT ([2]; listed as ADT): transformation of the majority of CTCs from the “AR-on” to the “AR-off” phenotype within one month
Presence of CTCs after initiation of ADT ([2]; treatment-naive metastatic prostate cancer patients with detectable CTCs): complete disappearance of CTCs by 3 months
